For assay [1], the target named is T1, F666A mutant TRPV3 (Mus musculus, UniProt Q8K424, F666A).
T1 construct: expressed in transfected cells; host or cells: HEK 293 S GnTI- cells (baculovirus transduction)
T1 sequence (Q8K424 1-791 F666A): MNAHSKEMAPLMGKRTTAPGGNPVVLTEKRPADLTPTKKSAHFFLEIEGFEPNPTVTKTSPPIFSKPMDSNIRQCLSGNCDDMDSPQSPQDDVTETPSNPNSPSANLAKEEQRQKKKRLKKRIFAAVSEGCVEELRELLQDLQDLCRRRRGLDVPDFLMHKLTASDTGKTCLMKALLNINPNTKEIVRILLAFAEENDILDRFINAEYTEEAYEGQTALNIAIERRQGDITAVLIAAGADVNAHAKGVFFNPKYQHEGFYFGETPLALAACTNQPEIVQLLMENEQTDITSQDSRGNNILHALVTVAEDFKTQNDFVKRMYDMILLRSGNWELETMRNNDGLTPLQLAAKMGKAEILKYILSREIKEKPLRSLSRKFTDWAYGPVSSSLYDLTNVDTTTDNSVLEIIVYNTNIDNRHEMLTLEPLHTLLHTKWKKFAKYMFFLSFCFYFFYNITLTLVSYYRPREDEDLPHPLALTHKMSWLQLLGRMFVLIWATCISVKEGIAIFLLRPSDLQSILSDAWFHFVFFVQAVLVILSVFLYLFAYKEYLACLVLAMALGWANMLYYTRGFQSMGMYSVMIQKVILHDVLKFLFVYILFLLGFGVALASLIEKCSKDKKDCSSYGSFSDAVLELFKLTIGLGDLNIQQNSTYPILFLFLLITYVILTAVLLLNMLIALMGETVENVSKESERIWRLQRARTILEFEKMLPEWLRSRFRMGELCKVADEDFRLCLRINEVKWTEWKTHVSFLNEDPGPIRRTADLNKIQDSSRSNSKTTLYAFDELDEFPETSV
In words: Fura-2 ratiometric Ca2+ measurement, activation by 2-APB. The settings on record: for F340/F380 change normalized to approximated maximal value at saturating 2-APB: F666A. It is filed as cell-based. Here is the method: GFP-free C-terminally strep-tagged wild-type TRPV3, TRPV3-Y564A, TRPV3-Y594A, TRPV3-F633A, TRPV3-I663W, and TRPV3-F666A were expressed in HEK 293 S GnTI^− cells as previously described[41],[42],[53]. In short, 48 h after transduction, 1-ml aliquots of cell suspension were collected by centrifugation at 550 g for 5 min using an Eppendorf 5424 centrifuge. The cells were resuspended in the pre-warmed modified HEPES-buffered saline (HBS) containing 118 mM NaCl, 4.8 mM KCl, 1 mM MgCl2, 5 mM D-glucose, and 10 mM HEPES pH 7.4 and 5 μg/ml Fura-2 AM (Thermo Fisher Scientific) and incubated for 45 min at 37 °C. The Fura-2-loaded cells were then centrifuged for 5 min at 550 g, resuspended in the pre-warmed, modified HBS and incubated again for 30 min at 37 °C in the dark. The cells were subsequently pelleted and washed twice in the modified HBS. The washed cell pellets were kept on ice in the dark before taking an aliquot for fluorescence measurements. […] We used the lower CaCl2 concentration than before[42],[28] (2.5 mM) to minimize non-specific effects, which often appeared as a drift in the Fura-2 signal at high Ca^2+ concentration, presumably due to cell death as a result of calcium overload. Fluorescence measurements were conducted using a QuantaMaster 40 spectrofluorometer (Photon Technology International) at room temperature in a quartz cuvette under constant stirring. After 60 s since the beginning, the recording was paused and 2-APB was added. After the addition of 2-APB, the recording was continued for the additional 140 s. Changes in intracellular Ca^2+ were measured by taking the ratio of fluorescence emitted at 510 nm at the excitation wavelength of 340 nm and 380 nm. […] The data were processed using Origin 9.0 (OriginLab) software.

Assay [2] has as its target T2, TRPV3-Y594A (Mus musculus, UniProt Q8K424, Y594A).
T2 construct: expressed in transfected cells; host or cells: HEK 293 S GnTI- cells (baculovirus transduction)
T2 sequence (Q8K424 1-791 Y594A): T1 sequence (Q8K424 1-791 F666A) with Y594A, A666F
In words: Fura-2 ratiometric Ca2+ measurement, control application of 2-APB. The assay is classed as cell-based. The text has this: The portal site in TRPV3 has not been previously shown to bind small-molecule inhibitors. This site, however, was originally proposed to be an entry pathway for local anesthetics to the pore of sodium channels[47]–[49] and found to accommodate cannabidiol in TRPV2, a closely-related representative of the vanilloid subfamily of TRP channels. […] We concluded that the Y594A mutation altered gating properties of TRPV3 and excluded this mutant from further analysis.
GFP-free C-terminally strep-tagged wild-type TRPV3, TRPV3-Y564A, TRPV3-Y594A, TRPV3-F633A, TRPV3-I663W, and TRPV3-F666A were expressed in HEK 293 S GnTI^− cells as previously described[41],[42],[53]. In short, 48 h after transduction, 1-ml aliquots of cell suspension were collected by centrifugation at 550 g for 5 min using an Eppendorf 5424 centrifuge. […] The washed cell pellets were kept on ice in the dark before taking an aliquot for fluorescence measurements. […] Fluorescence measurements were conducted using a QuantaMaster 40 spectrofluorometer (Photon Technology International) at room temperature in a quartz cuvette under constant stirring. […] Changes in intracellular Ca^2+ were measured by taking the ratio of fluorescence emitted at 510 nm at the excitation wavelength of 340 nm and 380 nm. […]

Assay [3] relates to wild-type TRPV3. The following applies: cited from earlier work; for F340/F380 change normalized to approximated maximal value at saturating 2-APB: WT, published before.

The structures appear in SMILES notation. Changes are numbered by the printed parent chain. Several values for one entry are separate records, joined by “and”; a condition that tells them apart may be missing. Identical values can stand only once. Like-named read-outs stand apart in the source and are kept apart here.

With `NCCOB(c1ccccc1)c1ccccc1` [2-APB], the “F340/F380 change normalized to approximated maximal value at saturating 2-APB” value in assay [1] (2-APB Conc 0.1, single experiments) was 0.01591 and 0.01218 and 0.01441; in assay [1] (2-APB Conc 0.3, single experiments), 0.0415 and 0.03827 and 0.03455; in assay [1] (2-APB Conc 1, single experiments) it was 0.08549 and 0.07903 and 0.08027; in assay [1] (2-APB Conc 3, single experiments), 0.1735 and 0.1693 and 0.1578; in assay [1] (2-APB Conc 10, single experiments), 0.3611 and 0.3532 and 0.3454; in assay [1] (2-APB Conc 30, single experiments), 0.6328 and 0.6126 and 0.5903. Besides, the “F340/F380 change normalized to approximated maximal value at saturating 2-APB” value in assay [1] (2-APB Conc 100, single experiments) is 0.7746 and 0.7881 and 0.7839; in assay [1] (2-APB Conc 300, single experiments) it was 0.7811 and 0.756 and 0.8326; in assay [3] (2-APB Conc 3.2, single experiments) it was 0.1142 and 0.08511 and 0.06324 and 0.1042; in assay [3] (2-APB Conc 102.4, single experiments), 0.8797 and 0.5873 and 0.8594 and 0.9531; in assay [3] (2-APB Conc 204.8, single experiments) it was 0.97 and 1 and 0.6572 and 1.041. In assay [1] (n = 3), the “nHill of activation curve, F666A” value is 0.80 ± 0.02. For the same compound, the EC50 – broadly, the concentration needed to bring the measured effect to its halfway point – in assay [1] (n = 3, read-out: EC50, 2-APB-induced activation of F666A) was 20.7 ± 0.9 µM; in assay [3] (n = 4, published before, read-out: EC50, 2-APB-induced activation of wild-type TRPV3), 27.4 ± 4.5 µM. Also, the “change in F340/F380 on control application of 2-APB, Y594A” value in assay [2] is given as “barely detectable changes”. Also, the “nHill of activation curve, wild-type TRPV3” value in assay [3] (n = 4, published before) is reported as 1.19 ± 0.09.
